Some test systems named below: IGROV1 ovarian; U251 CNS; UO-31 renal; UACC-62 melanoma; HL-60(TB) leukemia; OVCAR-8 ovarian; PC-3 prostate; T-47D breast; MOLT-4 leukemia; NCI/ADR-RES ovarian.
Common to all, as to assay: NCI tumour cell line growth inhibition, 48 h

We go through 17 compounds from PubChem BioAssay (NCI).

Structures are written as SMILES.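 In this assay, cells in 96-well plates receive the compound at five concentrations for 48 hours. Endpoints are linearly interpolated between the surrounding concentrations. GI50 = concentration required for 50% inhibition of growth. TGI is the concentration that stops growth completely.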

For `CCCCCCCCCCCCCC(=O)CSCCNC(=O)CCNC(=O)[C@@H](O)C(C)(C)COP(=O)(O)OP(=O)(O)OCC1OC(n2cnc3c(N)ncnc32)C(O)C1OP(=O)(O)O` (stereo partly drawn), the TGI in the assay on IGROV1 ovarian was determined as 28.6 µM; in the assay on U251 CNS it was 39.2 µM; in the assay with UO-31 renal, 27.6 µM; with UACC-62 melanoma, 29.5 µM; in the assay with HL-60(TB) leukemia, 51.4 µM; in the assay with OVCAR-8 ovarian it was 83.5 µM.

Turning to `C=C(C)C(=O)O[C@@H]1C/C(C)=C\[C@H](OC(C)=O)C[C@](C)(O)/C=C2/OC(=O)C(COC(C)=O)=C21`, the TGI in the assay on PC-3 prostate stood at 3.63 µM; with T-47D breast, 22.1 µM; in the assay with IGROV1 ovarian it was 3 µM; with UO-31 renal, 3.26 µM; in the assay on MOLT-4 leukemia, 2.32 µM; with UACC-62 melanoma it was 2.1 µM. Besides, the TGI in the assay with HL-60(TB) leukemia was determined as 0.0496 µM; in the assay on OVCAR-8 ovarian, 2.75 µM.

Consider `CCOc1ccc(O)cc1[P+](c1ccccc1)(c1ccccc1)c1ccccc1`, for which the TGI in the assay with U251 CNS is 15 µM; in the assay with UO-31 renal, 52.5 µM; with UACC-62 melanoma it was 17.8 µM; in the assay on OVCAR-8 ovarian, 15.7 µM.

With `CN(/N=C/c1cccc2cccnc12)c1c([N+](=O)[O-])cc([N+](=O)[O-])cc1[N+](=O)[O-]`, the TGI with IGROV1 ovarian, in the assay with U251 CNS, in the assay on MOLT-4 leukemia, in the assay with UACC-62 melanoma, in the assay on HL-60(TB) leukemia and in the assay on OVCAR-8 ovarian was greater than 100 µM each time.

On to `CCOC(=O)/C(=C/c1ccc(N(CCC#N)CCC#N)cc1C)NC(=O)/C=C/c1ccccc1`, for which the TGI in the assay with IGROV1 ovarian, in the assay on U251 CNS, with UO-31 renal, in the assay on MOLT-4 leukemia, with UACC-62 melanoma and in the assay with HL-60(TB) leukemia was greater than 100 µM throughout. The TGI in the assay with OVCAR-8 ovarian is greater than 100 µM.

As for `Cc1cc(=O)[nH]c(CNC(=O)c2cccc(C(=O)NCc3cc(=O)[nH]c(C)n3)c2)n1`, the TGI in the assay with IGROV1 ovarian, in the assay with U251 CNS, in the assay with UO-31 renal, in the assay on MOLT-4 leukemia, in the assay on UACC-62 melanoma and in the assay with HL-60(TB) leukemia was greater than 100 µM throughout. Besides, the TGI with OVCAR-8 ovarian was greater than 100 µM.

Turning to `O=C(CCc1nnc2s/c(=C\c3ccccc3Cl)c(=O)n12)Nc1cc(Cl)ccc1Cl`, the TGI in the assay on IGROV1 ovarian, with U251 CNS, in the assay on UO-31 renal, in the assay with MOLT-4 leukemia, with UACC-62 melanoma and in the assay with HL-60(TB) leukemia was greater than 100 µM throughout. Besides, in the assay on OVCAR-8 ovarian, the TGI was greater than 100 µM.

With `C[C@]12CCNC(=O)C=C1CC[C@@H]1C2CC[C@@]2(C)C1CC[C@@H]2OC(=O)COc1ccc(N(CCCl)CCCl)cc1` (stereo partly drawn), the TGI in the assay with T-47D breast was 9.03 µM; in the assay on IGROV1 ovarian, 33.4 µM; with U251 CNS, 11.1 µM; in the assay on UO-31 renal, 18.9 µM; with MOLT-4 leukemia it was greater than 22.2 µM; with UACC-62 melanoma, 6.41 µM. Also, the TGI stood at 7.4 µM in the assay on HL-60(TB) leukemia and 17.8 µM in the assay on OVCAR-8 ovarian.

Take `COC1OC(C)C2OC(C)(C)OC2C1OC(C)=O` (stereo not drawn): the TGI in the assay with IGROV1 ovarian, in the assay on U251 CNS, with MOLT-4 leukemia, with UACC-62 melanoma, with HL-60(TB) leukemia and with OVCAR-8 ovarian was greater than 100 µM each time.

For the compound `CC(=O)NNc1nc(C)c(C(=O)NNC(=O)C(=O)Nc2ccc([N+](=O)[O-])cc2C#N)s1`, the TGI in the assay on IGROV1 ovarian, in the assay with U251 CNS, in the assay with UO-31 renal, in the assay with MOLT-4 leukemia, in the assay with UACC-62 melanoma and in the assay on HL-60(TB) leukemia was greater than 100 µM in each case. In the assay with OVCAR-8 ovarian, this compound registered a TGI greater than 100 µM.

As for `CC1=C(C)C2(O)C(=C(C)C1=O)/C(=C(/O)c1ccccc1)c1nc3ccccc3n12` (stereo not drawn), the GI50 in the assay with T-47D breast is 14.5 µM; in the assay on IGROV1 ovarian, 12.3 µM; with U251 CNS, 22.1 µM; in the assay on UO-31 renal it was 25.6 µM; in the assay on MOLT-4 leukemia it was 24.6 µM; with HL-60(TB) leukemia, 18.3 µM. Moreover, in the assay with OVCAR-8 ovarian, the GI50 was 18 µM. The TGI is 33.1 µM in the assay on T-47D breast; 30.4 µM with IGROV1 ovarian; 58.2 µM in the assay on U251 CNS; greater than 100 µM with UO-31 renal; 72.3 µM in the assay on MOLT-4 leukemia; 56.7 µM in the assay with HL-60(TB) leukemia. Also, in the assay on OVCAR-8 ovarian, the TGI amounted to 41 µM.

Turning to `CC1NC(=O)C2=C1C(N)=NC(=O)C2` (stereo not drawn), the TGI in the assay with IGROV1 ovarian, with U251 CNS, in the assay on UO-31 renal, with MOLT-4 leukemia, in the assay with UACC-62 melanoma and in the assay with OVCAR-8 ovarian was greater than 100 µM throughout.

Regarding `O=C1c2ccccc2C(=O)c2sc(Nc3ccccc3Cl)nc21`, the TGI in the assay with PC-3 prostate is 25.9 µM; with T-47D breast, 34.5 µM; in the assay with IGROV1 ovarian it was 28.3 µM; in the assay on U251 CNS, 19.5 µM; in the assay on UO-31 renal, 24.4 µM; in the assay with MOLT-4 leukemia, 11.1 µM. For the same compound, the TGI with UACC-62 melanoma was 17.3 µM; with HL-60(TB) leukemia, 4.18 µM; in the assay with OVCAR-8 ovarian, 20.3 µM.

As to `CCN(CC)CCn1[nH]c2c3ccc(=O)cc3sc3c(NCCN)ccc1c32`, the TGI came out at 8.57 µM in the assay with IGROV1 ovarian; 5.18 µM with U251 CNS; 52.1 µM with UO-31 renal; 0.383 µM in the assay on MOLT-4 leukemia; 1.48 µM in the assay with UACC-62 melanoma; 12.7 µM in the assay with OVCAR-8 ovarian.

As for `CC(C)(C)OC(=O)c1cccnc1/C=N/O`, the TGI in the assay with IGROV1 ovarian, in the assay on U251 CNS, with UO-31 renal, in the assay with MOLT-4 leukemia, in the assay with UACC-62 melanoma and with HL-60(TB) leukemia was greater than 100 µM each time. In addition, in the assay with OVCAR-8 ovarian, the TGI was greater than 100 µM.

Turning to `NCCCCCCNCc1cccc2ccccc12`, the TGI with IGROV1 ovarian, in the assay with U251 CNS, in the assay with UO-31 renal, in the assay with MOLT-4 leukemia, with UACC-62 melanoma and in the assay with HL-60(TB) leukemia was greater than 100 µM in each case. In the assay on OVCAR-8 ovarian, this compound gave a TGI greater than 100 µM.

For `O=C(/C=C/C12c3ccccc3C(c3ccccc31)C1C(=O)NC(=O)C12)c1ccc(Cl)cc1` (stereo not drawn), the GI50 was 1.39 µM with PC-3 prostate; 1.77 µM in the assay on NCI/ADR-RES ovarian; 1.67 µM in the assay with IGROV1 ovarian; 1.52 µM with U251 CNS; 1.28 µM with UO-31 renal; 1.7 µM with MOLT-4 leukemia. Also, the GI50 in the assay with UACC-62 melanoma was 1.4 µM; with HL-60(TB) leukemia, 1.47 µM; in the assay on OVCAR-8 ovarian, 1.13 µM. Besides, the TGI with PC-3 prostate was 2.78 µM; in the assay with NCI/ADR-RES ovarian, 4.93 µM; with IGROV1 ovarian it was 3.4 µM; with U251 CNS, 2.99 µM; in the assay with UO-31 renal, 2.56 µM; in the assay on MOLT-4 leukemia, 15.5 µM. The TGI was found to be 2.77 µM in the assay with UACC-62 melanoma, 8.86 µM in the assay with HL-60(TB) leukemia and 2.66 µM in the assay on OVCAR-8 ovarian.
